Measurements as given in US20230295200A1 (REGENTS OF THE UNIVERSITY OF MICHIGAN, priority 2022, published 2023).

What follows are compounds tested against T1, STAT6 protein (Homo sapiens, UniProt P42226) (assay: Fluorescence polarization (FP) binding assay, STAT6). Conditions: FP competition, 5 nM fluorescein-labeled tracer, 200 nM protein, PBS pH7.4; read-out: Binding STAT6.
T1 sequence (P42226 1-847): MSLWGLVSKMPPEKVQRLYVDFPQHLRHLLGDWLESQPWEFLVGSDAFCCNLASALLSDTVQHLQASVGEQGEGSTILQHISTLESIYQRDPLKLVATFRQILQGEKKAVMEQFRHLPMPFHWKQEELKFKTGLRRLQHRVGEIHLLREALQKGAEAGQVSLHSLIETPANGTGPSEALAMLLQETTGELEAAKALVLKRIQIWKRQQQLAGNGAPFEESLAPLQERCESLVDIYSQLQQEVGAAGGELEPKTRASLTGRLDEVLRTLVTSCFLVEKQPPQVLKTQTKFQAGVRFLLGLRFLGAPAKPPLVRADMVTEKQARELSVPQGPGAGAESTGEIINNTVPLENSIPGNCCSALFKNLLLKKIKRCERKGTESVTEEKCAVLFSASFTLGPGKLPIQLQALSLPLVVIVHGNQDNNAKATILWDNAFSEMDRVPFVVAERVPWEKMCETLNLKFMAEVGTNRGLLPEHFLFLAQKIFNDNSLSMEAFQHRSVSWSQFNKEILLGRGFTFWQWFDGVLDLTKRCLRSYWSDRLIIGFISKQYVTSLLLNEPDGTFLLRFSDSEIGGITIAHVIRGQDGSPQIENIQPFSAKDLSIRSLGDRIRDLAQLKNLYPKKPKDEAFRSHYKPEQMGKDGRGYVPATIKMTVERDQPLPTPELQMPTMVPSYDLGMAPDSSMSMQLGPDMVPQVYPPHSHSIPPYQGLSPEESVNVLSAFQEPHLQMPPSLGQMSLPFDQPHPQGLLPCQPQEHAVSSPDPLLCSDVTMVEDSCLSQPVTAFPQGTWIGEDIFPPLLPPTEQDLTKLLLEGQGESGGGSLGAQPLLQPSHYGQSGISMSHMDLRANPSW
Outline: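 Polarization read after 1 h equilibration at room temperature (preceded by 15 min shaking) of 200 nM STAT5 and/or STAT6 with 5 nM fluorescein tracer. Buffer: PBS pH 7.4 plus 0.01% BGG, 0.01% Tween-20, 2 mM DTT; inhibition constants derived by nonlinear fitting.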
With `O=C(N[C@@H](CCc1ccccc1)C(=O)N1CCC[C@H]1C(=O)N1CCO[C@H](c2ccccc2)C1)c1cc2cc(C(F)(F)P(=O)(O)O)ccc2s1` [Compound 288, (difluoro(2-(((S)-1-oxo-4-phenyl-1-((S)-2-((R)-2-phenylmorpholine-4-carbonyl)pyrrolidin-1-yl)butan-2-yl)carbamoyl)benzo[b]thiophen-5-yl)methyl)phosphonic acid] the Ki was 0.1 to 1 µM. In the case of `O=C(N[C@@H](CCCc1ccccc1)C(=O)N1CCC[C@H]1C(=O)N1CCO[C@H](c2ccccc2)C1)c1cc2cc(C(F)(F)P(=O)(O)O)ccc2s1` [Compound 289, (difluoro(2-(((S)-1-oxo-5-phenyl-1-((S)-2-((R)-2-phenylmorpholine-4-carbonyl)pyrrolidin-1-yl)pentan-2-yl)carbamoyl)benzo[b]thiophen-5-yl)methyl)phosphonic acid], the Ki is reported as < 0.1 µM. `O=C(N[C@@H](CC1CCNCC1)C(=O)N1CCC[C@H]1C(=O)N1CCO[C@H](c2ccccc2)C1)c1cc2cc(C(F)(F)P(=O)(O)O)ccc2s1` [Compound 290, (difluoro(2-(((S)-1-oxo-1-((S)-2-((R)-2-phenylmorpholine-4-carbonyl)pyrrolidin-1-yl)-3-(piperidin-4-yl)propan-2-yl)carbamoyl)benzo[b]thiophen-5-yl)methyl)phosphonic acid] was tested, and the Ki was 0.1 to 1 µM. With `CN1CCC(C[C@H](NC(=O)c2cc3cc(C(F)(F)P(=O)(O)O)ccc3s2)C(=O)N2CCC[C@H]2C(=O)N2CCO[C@H](c3ccccc3)C2)CC1` [Compound 291, (difluoro(2-(((S)-3-(1-methylpiperidin-4-yl)-1-oxo-1-((S)-2-((R)-2-phenylmorpholine-4-carbonyl)pyrrolidin-1-yl)propan-2-yl)carbamoyl)benzo[b]thiophen-5-yl)methyl)phosphonic acid] the Ki was 0.1 to 1 µM. Compound `CCN1CCC(C[C@H](NC(=O)c2cc3cc(C(F)(F)P(=O)(O)O)ccc3s2)C(=O)N2CCC[C@H]2C(=O)N2CCO[C@H](c3ccccc3)C2)CC1` [Compound 292, ((2-(((S)-3-(1-ethylpiperidin-4-yl)-1-oxo-1-((S)-2-((R)-2-phenylmorpholine-4-carbonyl)pyrrolidin-1-yl)propan-2-yl)carbamoyl)benzo[b]thiophen-5-yl)difluoromethyl)phosphonic acid] has a Ki of 0.1 to 1 µM. Compound `CC(C)CCN1CCC(C[C@H](NC(=O)c2cc3cc(C(F)(F)P(=O)(O)O)ccc3s2)C(=O)N2CCC[C@H]2C(=O)N2CCO[C@H](c3ccccc3)C2)CC1` [Compound 293, (difluoro(2-(((S)-3-(1-isopentylpiperidin-4-yl)-1-oxo-1-((S)-2-((R)-2-phenylmorpholine-4-carbonyl)pyrrolidin-1-yl)propan-2-yl)carbamoyl)benzo[b]thiophen-5-yl)methyl)phosphonic acid] has a Ki of 0.1 to 1 µM. In the case of `O=C(N[C@@H](CC1CCN(CC2CCCCC2)CC1)C(=O)N1CCC[C@H]1C(=O)N1CCO[C@H](c2ccccc2)C1)c1cc2cc(C(F)(F)P(=O)(O)O)ccc2s1` [Compound 294, ((2-(((S)-3-(1-(cyclohexylmethyl)piperidin-4-yl)-1-oxo-1-((S)-2-((R)-2-phenylmorpholine-4-carbonyl)pyrrolidin-1-yl)propan-2-yl)carbamoyl)benzo[b]thiophen-5-yl)difluoromethyl)phosphonic acid], the Ki is reported as 0.1 to 1 µM. Compound `CCC(CC)CN1CCC(C[C@H](NC(=O)c2cc3cc(C(F)(F)P(=O)(O)O)ccc3s2)C(=O)N2CCC[C@H]2C(=O)N2CCO[C@H](c3ccccc3)C2)CC1` [Compound 295, ((2-(((S)-3-(1-(2-ethylbutyl)piperidin-4-yl)-1-oxo-1-((S)-2-((R)-2-phenylmorpholine-4-carbonyl)pyrrolidin-1-yl)propan-2-yl)carbamoyl)benzo[b]thiophen-5-yl)difluoromethyl)phosphonic acid] has a Ki of 0.1 to 1 µM. With `O=C(N[C@@H](CC1CCN(CCc2ccccc2)CC1)C(=O)N1CCC[C@H]1C(=O)N1CCO[C@H](c2ccccc2)C1)c1cc2cc(C(F)(F)P(=O)(O)O)ccc2s1` [Compound 296, (difluoro(2-(((S)-1-oxo-3-(1-phenethylpiperidin-4-yl)-1-((S)-2-((R)-2-phenylmorpholine-4-carbonyl)pyrrolidin-1-yl)propan-2-yl)carbamoyl)benzo[b]thiophen-5-yl)methyl)phosphonic acid] the Ki was 0.1 to 1 µM. With `O=C(N[C@@H](CC1CCN(CCCc2ccccc2)CC1)C(=O)N1CCC[C@H]1C(=O)N1CCO[C@H](c2ccccc2)C1)c1cc2cc(C(F)(F)P(=O)(O)O)ccc2s1` [Compound 297, (difluoro(2-(((S)-1-oxo-1-((S)-2-((R)-2-phenylmorpholine-4-carbonyl)pyrrolidin-1-yl)-3-(1-(3-phenylpropyl)piperidin-4-yl)propan-2-yl)carbamoyl)benzo[b]thiophen-5-yl)methyl)phosphonic acid] the Ki was 0.1 to 1 µM. In the case of `CC(C)(C)[C@H](NC(=O)c1cc2cc(C(F)(F)P(=O)(O)O)ccc2s1)C(=O)N1C[C@H](Oc2ccccc2)C[C@H]1C(=O)N1CCO[C@H](c2ccccc2)C1` [Compound 299, ((2-(((S)-3,3-dimethyl-1-oxo-1-((2S,4R)-4-phenoxy-2-((R)-2-phenylmorpholine-4-carbonyl)pyrrolidin-1-yl)butan-2-yl)carbamoyl)benzo[b]thiophen-5-yl)difluoromethyl)phosphonic acid], the Ki is reported as 0.1 to 1 µM. For `CC(C)(C)[C@H](NC(=O)c1cc2cc(C(F)(F)P(=O)(O)O)ccc2s1)C(=O)N1C[C@H](OCc2ccccc2)C[C@H]1C(=O)N1CCO[C@H](c2ccccc2)C1` [Compound 300, ((2-(((S)-1-((2S,4R)-4-(benzyloxy)-2-((R)-2-phenylmorpholine-4-carbonyl)pyrrolidin-1-yl)-3,3-dimethyl-1-oxobutan-2-yl)carbamoyl)benzo[b]thiophen-5-yl)difluoromethyl)phosphonic acid], the Ki was < 0.1 µM. `CC(C)(C)[C@H](NC(=O)c1cc2cc(C(F)(F)P(=O)(O)O)ccc2s1)C(=O)N1C[C@@H](Oc2ccccc2)C[C@H]1C(=O)N1CCO[C@H](c2ccccc2)C1` [Compound 301, ((2-(((S)-3,3-dimethyl-1-oxo-1-((2S,4S)-4-phenoxy-2-((R)-2-phenylmorpholine-4-carbonyl)pyrrolidin-1-yl)butan-2-yl)carbamoyl)benzo[b]thiophen-5-yl)difluoromethyl)phosphonic acid] was tested, and the Ki was < 0.1 µM. For `CN1CC[C@H]2CC[C@@H](C(=O)N3CCc4ccccc4C3)N2C(=O)[C@@H](NC(=O)c2cc3cc(C(F)(F)P(=O)(O)O)ccc3[nH]2)C1` [Compound 330, (difluoro(2-(((5S,8S,10aR)-3-methyl-6-oxo-8-(1,2,3,4-tetrahydroisoquinoline-2-carbonyl)decahydropyrrolo[1,2-a][1,5]diazocin-5-yl)carbamoyl)-1H-indol-5-yl)methyl)phosphonic acid], the Ki was > 10 µM. With `CN1CC[C@H]2CC[C@@H](C(=O)N3CCc4ccccc4C3)N2C(=O)[C@@H](NC(=O)c2cc3cc(C(F)(F)P(=O)(O)O)ccc3s2)C1` [Compound 331, (difluoro(2-(((5S,8S,10aR)-3-methyl-6-oxo-8-(1,2,3,4-tetrahydroisoquinoline-2-carbonyl)decahydropyrrolo[1,2-a][1,5]diazocin-5-yl)carbamoyl)benzo[b]thiophen-5-yl)methyl)phosphonic acid] the Ki was > 10 µM. With `CC(=O)N1CC[C@H]2CC[C@@H](C(=O)N3CCc4ccccc4C3)N2C(=O)[C@@H](NC(=O)c2cc3cc(C(F)(F)P(=O)(O)O)ccc3[nH]2)C1` [Compound 332, ((2-(((5S,8S,10aR)-3-acetyl-6-oxo-8-(1,2,3,4-tetrahydroisoquinoline-2-carbonyl)decahydropyrrolo[1,2-a][1,5]diazocin-5-yl)carbamoyl)-1H-indol-5-yl)difluoromethyl)phosphonic acid] the Ki was > 10 µM. For `CC(=O)N1CC[C@H]2CC[C@@H](C(=O)N3CCc4ccccc4C3)N2C(=O)[C@@H](NC(=O)c2cc3cc(C(F)(F)P(=O)(O)O)ccc3s2)C1` [Compound 333, ((2-(((5S,8S,10aR)-3-acetyl-6-oxo-8-(1,2,3,4-tetrahydroisoquinoline-2-carbonyl)decahydropyrrolo[1,2-a][1,5]diazocin-5-yl)carbamoyl)benzo[b]thiophen-5-yl)difluoromethyl)phosphonic acid], the Ki was > 10 µM. In the case of `CC(=O)N1CC[C@H]2CC[C@@H](C(=O)N3CCc4ccccc4C3)N2C(=O)[C@@H](NC(=O)c2ccc3ccc(C(F)(F)P(=O)(O)O)cc3c2)C1` [Compound 334, ((7-(((5S,8S,10aR)-3-acetyl-6-oxo-8-(1,2,3,4-tetrahydroisoquinoline-2-carbonyl)decahydropyrrolo[1,2-a][1,5]diazocin-5-yl)carbamoyl)naphthalen-2-yl)difluoromethyl)phosphonic acid], the Ki is reported as > 10 µM.
